# Test results reported in EP3130339A1, “A COMPOUND FOR USE IN THE TREATMENT OF COMORBID ANXIETY DISORDER AND DEPRESSION DISORDER” (Aché Laboratórios Farmacêuticos S.A., priority 2015, dated 2017).
# Where “and” joins values, the source holds several entries; their conditions need not be identical. Equal values may be shown once.
# Tests used:
# Assay type in all cases: in vivo
# mice (RJ:NMRI, males) = experiment: Bright/dark box test (clear/dark transition test); conditions: for permanence time in the clear compartment (result in words): summary of Table 2 over the doses tested, i.p.
# Experimental: This model, also known as clear/dark transition test, is characterized as a model of conflict, based on the natural tendency to explore new environments versus avoidance of doing so, due to the potential possibility of the presence of aversive stimuli. It is an animal model based on independent behavior of conditioning, therefore, there is no need of learning. In rodents, this model is grounded in their natural aversion to excessively clear environments. This aversion is measured from the ansiogenic component expressed by lower exposure of the animal to the clear compartment.
# The method employed followed the procedure described by Crawley and Goodwin (Pharmacol. Biochem. Behav. 1981, 15, 695-699).
# The animals were placed on the clear field of a box comprising two compartments, one being illuminate and open (25 x 27 x 27 cm) and the other being dark and close (20 x 27 x 27 cm). Data on the length of stay in each compartment were collected over the three-minute test.
# This test aimed at obtaining a comparison profile of response of Compound (A) (3-(2-(-4-(2-methoxyphenyl)piperazin-1-yl)ethyl)quinazolin-4(3H)-one and Compound (B) 3-(2-(4-(2-cyanophenyl)piperazin-1-yl)ethyl)quinazolin-4(3H)-one with known compounds that act by different mechanisms. The comparative compounds were alprazolam (benzodiazepine), paroxetine (ISRS-type antidepressant), venlafaxine (IRSN-type antidepressant) and agomelatine (antidepressant that acts on melatonin and serotonin 5-HT2C receptor). The following doses were employed in this study: Table 1: Tested compounds, concentrations and route of administration.
# In this blind study, ten mice (RJ:NMRI, males) were employed per group. Clobazam (12 mg/Kg, i.p. route) was administered under the same study conditions as the reference compound. All compounds were administered 30 minutes before the test.
# The test data of the response of substances were analyzed comparing the groups treated with the control vehicle using one-way ANOVA followed by post-hoc analysis of Dunnett's test. The data of the reference substance obtained were analyzed using unpaired Student's t test.
# Mice [1] = experiment: Non-precipitated withdrawal test
# Source text: This test aims at assessing how the sudden cessation of the administration of a medicine can be associated with the occurrence of withdrawal identifiable symptoms. The types of symptoms examined are feed changes, weight gain, body temperature and the occurrence of one or behavioral symptoms and others, such as tremor, teeth chattering, wet dog body-shaking, diarrhea or piloerection. The triggering of these signs is a first sign that the substance induces dependence after repeated administration.
# The method employed followed the procedure described by Goudie and Leathley (Psychopharmacology 1991, 103: 529-537).
# Two mice per cage received two administrations per day (approximately 10:00 hours and 16:00 hours) of the test substance continuously during 19 days (day 1 to day 19), with the last administration occurring next to 10:00 hours of the 20th day. Control animals received the same number of administrations of vehicle. […] During the discontinuation phase, all animals received administration of vehicle once a day.
# Additionally to the observations made after discontinuing the medicines, the same measures were taken at day 1 and day 10 of treatment, in addition to the 3 last days (days 18 to 20) immediately prior to administration of the dose in the morning to assess the effects of medicines before discontinuation. After discontinuation, the first observation was performed 24 hours after the last administration and, from then on, every 24 hours (days 21 to 28).
# For daily measurements, the animals were evaluated with respect to behavioral changes during 5 minutes (two animals simultaneously observed). Then, their body weights and rectal temperatures were measured. Then, they received the proper treatment and were returned to their cages.
# The leftover food in their supporters was weighed immediately after all animals return to their cages (only in the mornings), and food consumption in the previous 24 hours was determined.
# The body weights, feed consumption and rectal temperatures were also measured 24 hours before the first administration, as reference values. The treated groups were homogenized with regard to body weights on the day preceding the first administration of the tested substances.
# Compound (A) (3-(2-(-4-(2-methoxyphenyl)piperazin-1-yl)ethyl)quinazolin-4 (3H)-one) was evaluated in 3 doses (3, 10 and 30 mg/kg) administered orally (p.o.) and compared to the vehicle (control group).
# Chlordiazepoxide (64 mg/kg, p.o.) was administered under the same experimental conditions, and was employed as reference substance in the test.
# Paroxetine (15 and 30 mg/kg p.o.) was administered under the same experimental conditions and was used as comparative substance.
# The test was blinded. Data were analyzed by comparing substances with their control vehicles employing one-way ANOVA with the group as a factor followed by post-hoc Dunnett tests. Data with the reference substance were analyzed using unpaired Student's t test.
# Mice [2] = experiment: Sphere hiding test; conditions: for number of hidden spheres (result in words): summary of Table 4 over the doses tested
# Experimental: This test is based on the natural aversive behavior to glass and marble of rodents, where the presence of these objects triggers the action of burying (hiding). In this test, there are potential behavioral changes of medicines that may promote an ansiogenic or anxiolytic profile. This is determined by the increase or decrease of the behavior of hiding glass spheres ("marbles") that are randomly distributed on the surface of a box lined with sawdust. The increase of the number of covered balls is an indicative of anxiety, since it is supposed to represent a foreign agent to the animal, whose presence may pose threat. The administration of anxiolytics medicines decreases the number of spheres buried in non-sedative doses.
# The method employed followed the procedure described by Broekkamp et al. (Eur. J. Pharmacol., 1986, 126, 223-229).
# Mice were individually placed in transparent plastic cages (33 x 21 x 18 cm), with the floor covered by a 5 cm layer of sawdust and 25 glass spheres grouped in the center of the cage. The cage was covered with a perforated plastic cover. Each test cage, along with the glass spheres, were previously impregnated with "mouse odor", and a group of 10 mice was left inside for 15 minutes.
# The number of glass spheres covered with sawdust (2/3 or more of the surface) was counted at the end of the 30 minutes of the test.
# Each study group consisted of 12 mice. The test was partially blind (substances tested versus vehicle of the tested substances).
# This test aimed at obtaining a comparison profile of response of Compound (A) (3-(2-(-4-(2-methoxyphenyl)piperazin-1-yl) ethyl) quinazolin-4 (3H) -one and Compound (B) (3-(2-(4-(2-cyanophenyl)piperazin-1-yl)ethyl)quinazolin-4(3H)-one) with known compounds that act by different mechanisms. The comparative compounds used were alprazolam (benzodiazepine) and paroxetine (ISRS-type antidepressant). These compounds were tested in the following doses: Table 3: Compounds tested, concentrations employed and route of administration.
# Fluoxetine (ISRI antidepressant) was used as the positive control substance in the test, and was administered at 32 mg/kg (i.p.).
# Quantitative data for the tested substances (number of glass spheres coated with sawdust) were evaluated by comparison with the treated groups using one-way ANOVA followed by planned comparisons against the appropriate vehicles. Data with fluoxetine were compared to the vehicle control using unpaired Student's t test.
# [3] = withdrawal phase, 64 mg/kg p.o.
# [4] = 4 mg/Kg i.p., 30 minutes before the test
# [5] = 4 mg/Kg i.p., 30 minutes before the test, three-minute test
# [6] = 8 mg/Kg i.p., 30 minutes before the test
# [7] = 8 mg/Kg i.p., 30 minutes before the test, three-minute test
# [8] = 16 mg/Kg i.p., 30 minutes before the test
# [9] = 16 mg/Kg i.p., 30 minutes before the test, three-minute test
# [10] = dose given in Table 4 as (4), i.p.
# [11] = dose given in Table 4 as (4), i.p., 25 glass spheres, counted at the end of 30 minutes
# [12] = dose given in Table 4 as (8), i.p.
# [13] = dose given in Table 4 as (8), i.p., 25 glass spheres, counted at the end of 30 minutes
compound,measurement,setting,value
"COc1ccc2cccc(CCNC(C)=O)c2c1 [Agomelatine, agomelatine]",Time spent in the clear compartment compared to vehicle %,"mice (RJ:NMRI, males); 25 mg/Kg i.p., 30 minutes before the test",-12%
same,Time spent in the clear compartment (seconds) (mean ± mean standard error),"mice (RJ:NMRI, males); 25 mg/Kg i.p., 30 minutes before the test, three-minute test",64.7 ± 4.9 s
same,Time spent in the clear compartment compared to vehicle %,"mice (RJ:NMRI, males); 50 mg/Kg i.p., 30 minutes before the test",-4%
same,Time spent in the clear compartment (seconds) (mean ± mean standard error),"mice (RJ:NMRI, males); 50 mg/Kg i.p., 30 minutes before the test, three-minute test",70.6 ± 8.5 s
same,Time spent in the clear compartment compared to vehicle %,"mice (RJ:NMRI, males); 75 mg/Kg i.p., 30 minutes before the test",-3%
same,Time spent in the clear compartment (seconds) (mean ± mean standard error),"mice (RJ:NMRI, males); 75 mg/Kg i.p., 30 minutes before the test, three-minute test",71.3 ± 7.3 s
"Cc1nnc2n1-c1ccc(Cl)cc1C(c1ccccc1)=NC2 [Alprazolam, alprazolam]",Time spent in the clear compartment (seconds) (mean ± mean standard error),"mice (RJ:NMRI, males); mouse, in vivo",103.9 ± 11.5 s and 126.9 ± 10.1 s and 112.7 ± 15.5 s
same,amount of food consumed,"Mice [1]; mouse, in vivo",significant reduction in the amount of food consumed on the first day of abstinence
same,"body weight, amount of food consumed and rectal temperature (the three studied parameters)","Mice [1]; mouse, in vivo",showed no significant changes
same,withdrawal syndrome after an extended administration regimen,"Mice [1]; mouse, in vivo, po",induces withdrawal syndrome
same,Number of Hidden Spheres (mean ± mean standard error),"Mice [2]; mouse, in vivo","1,6 ± 1,4"
same,Number of Hidden Spheres Compared to vehicle control %,"Mice [2]; mouse, in vivo",-92%
CNC1=Nc2ccc(Cl)cc2C(c2ccccc2)=[N+]([O-])C1 [Chlordiazepoxide],withdrawal syndrome after an extended administration regimen,"Mice [1]; overall conclusion of the test, p.o., two administrations per day, day 1 to 20",induces a clear withdrawal syndrome
same,behavioral and psychological effects,"Mice [1]; treatment phase, 64 mg/kg p.o.","ptosis, hyperactivity, jumps and dyspnoea"
same,body weight and amount of food consumed,"Mice [1]; treatment phase, 64 mg/kg p.o.",did not induce significant changes
same,rectal temperature,"Mice [1]; treatment phase, 64 mg/kg p.o.",slight increase of rectal temperature
same,behavioral and psychological effects,Mice [1]; [3],"intensified the psychological behaviors and symptoms, mainly dyspnoea and hyperactivity, inducing occasional straub tail and teeth chattering"
same,"body weight, amount of food consumed and rectal temperature",Mice [1]; [3],"clear reduction in body weight and the amount of food consumed, and a significant increase of rectal temperature"
CN1C(=O)CC(=O)N(c2ccccc2)c2cc(Cl)ccc21 [Clobazam],Time spent in the clear compartment compared to vehicle %,"mice (RJ:NMRI, males); 12 mg/Kg i.p., 30 minutes before the test, reference compound",+41%
same,Time spent in the clear compartment (seconds) (mean ± mean standard error),"mice (RJ:NMRI, males); 12 mg/Kg i.p., 30 minutes before the test, three-minute test, reference compound",104.0 ± 5.2 s
"COc1ccccc1N1CCN(CCn2cnc3ccccc3c2=O)CC1 [Compound (A), 3-(2-(-4-(2-methoxyphenyl)piperazin-1-yl)ethyl)quinazolin-4(3H)-one]",Time spent in the clear compartment compared to vehicle %,"mice (RJ:NMRI, males); [4]",+8%
same,Time spent in the clear compartment (seconds) (mean ± mean standard error),"mice (RJ:NMRI, males); [5]",79.6 ± 15.4 s
same,Time spent in the clear compartment compared to vehicle %,"mice (RJ:NMRI, males); [6]",+111%
same,Time spent in the clear compartment (seconds) (mean ± mean standard error),"mice (RJ:NMRI, males); [7]",155.1 ± 14.4 s
same,Time spent in the clear compartment compared to vehicle %,"mice (RJ:NMRI, males); [8]",+93%
same,Time spent in the clear compartment (seconds) (mean ± mean standard error),"mice (RJ:NMRI, males); [9]",141.7 ± 13.4 s
same,permanence time in the clear compartment (result in words),"mice (RJ:NMRI, males)",efficient in extending the permanence time in the clear compartment
same,withdrawal syndrome after an extended administration regimen,"Mice [1]; mouse, in vivo, po",does not induce withdrawal syndrome
same,Number of Hidden Spheres Compared to vehicle control %,Mice [2]; [10],-82%
same,Number of Hidden Spheres (mean ± mean standard error),Mice [2]; [11],3.5 ± 2.4
same,Number of Hidden Spheres Compared to vehicle control %,Mice [2]; [12],-98%
same,Number of Hidden Spheres (mean ± mean standard error),Mice [2]; [13],0.3 ± 0.3
same,number of hidden spheres (result in words),Mice [2]; i.p.,significantly reduced the number of hidden spheres
"N#Cc1ccccc1N1CCN(CCn2cnc3ccccc3c2=O)CC1 [Compound (B), 3-(2-(4-(2-cyanophenyl)piperazin-1-yl)ethyl)quinazolin-4(3H)-one]",Time spent in the clear compartment compared to vehicle %,"mice (RJ:NMRI, males); [4]",+37%
same,Time spent in the clear compartment (seconds) (mean ± mean standard error),"mice (RJ:NMRI, males); [5]",100.9 ± 15.2 s
same,Time spent in the clear compartment compared to vehicle %,"mice (RJ:NMRI, males); [6]",+40%
same,Time spent in the clear compartment (seconds) (mean ± mean standard error),"mice (RJ:NMRI, males); [7]",103.0 ± 11.5 s
same,Time spent in the clear compartment compared to vehicle %,"mice (RJ:NMRI, males); [8]",+103%
same,Time spent in the clear compartment (seconds) (mean ± mean standard error),"mice (RJ:NMRI, males); [9]",149.3 ± 11.0 s
same,permanence time in the clear compartment (result in words),"mice (RJ:NMRI, males)",efficient in extending the permanence time in the clear compartment
same,Number of Hidden Spheres Compared to vehicle control %,Mice [2]; [10],-42%
same,Number of Hidden Spheres (mean ± mean standard error),Mice [2]; [11],11.0 ± 3.3
same,Number of Hidden Spheres Compared to vehicle control %,Mice [2]; [12],-89%
same,Number of Hidden Spheres (mean ± mean standard error),Mice [2]; [13],2.1 ± 2.1
same,number of hidden spheres (result in words),Mice [2]; i.p.,significantly reduced the number of hidden spheres
CNCCC(Oc1ccc(C(F)(F)F)cc1)c1ccccc1 (centres unmarked) [Fluoxetine],Number of Hidden Spheres Compared to vehicle control %,"Mice [2]; 32 mg/kg i.p., positive control",-74%
same,Number of Hidden Spheres (mean ± mean standard error),"Mice [2]; 32 mg/kg i.p., positive control, 25 glass spheres, counted at the end of 30 minutes",4.9 ± 2.0
"COc1ccc(C(CN(C)C)C2(O)CCCCC2)cc1 (centres unmarked) [Venlafaxine, venlafaxine]",Time spent in the clear compartment compared to vehicle %,"mice (RJ:NMRI, males); [6]",-2%
same,Time spent in the clear compartment (seconds) (mean ± mean standard error),"mice (RJ:NMRI, males); [7]",72.3 ± 7.3 s
same,Time spent in the clear compartment compared to vehicle %,"mice (RJ:NMRI, males); [8]",-12%
same,Time spent in the clear compartment (seconds) (mean ± mean standard error),"mice (RJ:NMRI, males); [9]",65.1 ± 6.0 s
same,Time spent in the clear compartment compared to vehicle %,"mice (RJ:NMRI, males); 32 mg/Kg i.p., 30 minutes before the test",+7%
same,Time spent in the clear compartment (seconds) (mean ± mean standard error),"mice (RJ:NMRI, males); 32 mg/Kg i.p., 30 minutes before the test, three-minute test",78.9 ± 4.9 s
